# Where a SMILES comes first, the peptide text is derived from it. [ ]: non-standard residue; d: D form. The star is where a group is joined. Orn(α-tetramethylguanidino) = CN(C)C(=N[C@@H](CCCN)C(=O)*)N(C)C; Orn = NCCC[C@H](N)C(=O)O
# Assays:
# P. aeruginosa DSM 1117 = assay: Transmission electron microscopy, morphological changes; format: cell-based, Pseudomonas aeruginosa; conditions: 1 h
# Description: (§1) Peptide-bacteria mixtures were fixed (2% glutaraldehyde, 5 mmol/L CaCl2, 10 mmol/L MgCl2 in 0.1 mol/L sodium cacodylate buffer, pH 7.4) overnight at 4°C. […] Samples were rinsed with distilled water (5 × 10 min), incubated with aqueous uranylacetate (0.5% w/v) for 1 h at 4°C, washed with distilled water (3 × 10 min), and embedded in Epon. The hardened blocks were sectioned (50 nm) on a UCT ultramicrotome (Leica, Vienna, Austria), stained with uranyl acetate and lead citrate on an AC20 system (Leica), and visualized at a Tecnai 12 electron microscope (FEI, Eindhoven, The Netherlands) at 80 kV. Morphological effects were quantified on average for 25 cells per condition.
# E. coli DSM 1103 = assay: as above; format: cell-based, Escherichia coli; conditions: 1 h
# Description: as §1
# [1] = tested on: E. coli DSM 1103 (ATCC 25922); format: cell-based, Escherichia coli; conditions: DSM 1103, 24 h
# Description: (§2) MICs of P. aeruginosa strains DSM 1117 (ATCC 27853), DSM 3227 (ATCC 19429), and DSM 9644 were determined in a microdilution broth assay using 50 or 100% MHB (11.5 and 23 g/L MHB, respectively) whereas MICs of E. coli DSM 1103 (ATCC 25922) and K. pneumoniae DSM 681 (ATCC 10031) were determined in TSB (30 g/L TSB). Peptides (1 g/L in water) were serially two-fold diluted in a 96-well microtiter plate (PS, sterile, flat bottom) in 50 μL of the corresponding medium to final concentrations of 512–4 μg/mL. Bacteria were grown in nutrient broth overnight and diluted to a cell concentration of 1.5 × 10^7 cells/mL in the corresponding medium. Cell densities were determined by using the McFarland standard as reference. An aliquot (50 μL) of the cell culture was added to each well and incubated (37°C, 24 h). The OD595 was determined in a SpectraMax 340PC (Molecular Devices, Sunnyvale, USA). Additionally, MIC values were also determined for high bacteria densities (5 × 10^8 cells/mL) corresponding to the conditions used for TEM, as described above.
# [2] = tested on: K. pneumoniae DSM 681 (ATCC 10031); format: cell-based, Klebsiella pneumoniae; conditions: DSM 681, 24 h
# Description: as §2
# [3] = tested on: P. aeruginosa DSM 1117 (ATCC 27853); format: cell-based, Pseudomonas aeruginosa; conditions: DSM 1117, 24 h
# Description: as §2
smiles,measurement,setting,value
"CC[C@H](C)[C@H](NC(=O)[C@H](CCCN)N=C(N(C)C)N(C)C)C(=O)N[C@@H](CCCN)C(=O)N[C@H](C(=O)N[C@@H](CCCN)C(=O)N[C@@H](CCCNC(=N)N)C(=O)N1CCC[C@H]1C(=O)N[C@H](C(=O)N[C@@H](Cc1ccc(O)cc1)C(=O)N[C@@H](CCCN)C(=O)N1CCC[C@H]1C(=O)N[C@@H](CCCNC(=N)N)C(=O)N1CCC[C@H]1C(=O)N[C@@H](CCCNC(=N)N)C(=O)N1CCC[C@H]1C(=O)N1CCC[C@H]1C(=O)N[C@@H](Cc1c[nH]cn1)C(=O)N1CCC[C@H]1C(=O)N[C@@H](CCCNC(=N)N)C(=O)N[C@@H](CC(C)C)C(=O)O)C(C)C)[C@@H](C)CC [Api795, gu-O(IO)2RPVYOPRPRPPHPRL-OH] ({Orn(α-tetramethylguanidino)}-I[Orn]I[Orn]RPVY[Orn]PRPRPPHPRL-OH)",Cells spongy,P. aeruginosa DSM 1117; 4 µg/mL,0%
same,"DNA/ribosomes relocalization: +++, extremely relocalized",P. aeruginosa DSM 1117; 4 µg/mL,0%
same,"DNA/ribosomes relocalization: ++, relocalized",P. aeruginosa DSM 1117; 4 µg/mL,23%
same,"DNA/ribosomes relocalization: +, starting",P. aeruginosa DSM 1117; 4 µg/mL,37%
same,"DNA/ribosomes relocalization: -, no",P. aeruginosa DSM 1117; 4 µg/mL,40%
same,"Membrane: b, broken",P. aeruginosa DSM 1117; 4 µg/mL,0%
same,"Membrane: i, intact",P. aeruginosa DSM 1117; 4 µg/mL,100%
same,"Membrane: r, ruptured",P. aeruginosa DSM 1117; 4 µg/mL,0%
same,"Ribosome clustering: +++, extremely clustered",P. aeruginosa DSM 1117; 4 µg/mL,0%
same,"Ribosome clustering: ++, clustered",P. aeruginosa DSM 1117; 4 µg/mL,0%
same,"Ribosome clustering: +, starting",P. aeruginosa DSM 1117; 4 µg/mL,70%
same,"Ribosome clustering: -, no",P. aeruginosa DSM 1117; 4 µg/mL,30%
same,Vesicle release,P. aeruginosa DSM 1117; 4 µg/mL,67%
same,"dissociated Fragments: ++, long and thin",P. aeruginosa DSM 1117; 4 µg/mL,3%
same,"dissociated Fragments: +, small and thin",P. aeruginosa DSM 1117; 4 µg/mL,3%
same,"dissociated Fragments: -, no",P. aeruginosa DSM 1117; 4 µg/mL,93%
same,"dissociated Fragments: LV, large vesicles",P. aeruginosa DSM 1117; 4 µg/mL,0%
same,Cells spongy,P. aeruginosa DSM 1117; 16 µg/mL,0%
same,"DNA/ribosomes relocalization: +++, extremely relocalized",P. aeruginosa DSM 1117; 16 µg/mL,0%
same,"DNA/ribosomes relocalization: ++, relocalized",P. aeruginosa DSM 1117; 16 µg/mL,10%
same,"DNA/ribosomes relocalization: +, starting",P. aeruginosa DSM 1117; 16 µg/mL,40%
same,"DNA/ribosomes relocalization: -, no",P. aeruginosa DSM 1117; 16 µg/mL,50%
same,"Membrane: b, broken",P. aeruginosa DSM 1117; 16 µg/mL,0%
same,"Membrane: i, intact",P. aeruginosa DSM 1117; 16 µg/mL,100%
same,"Membrane: r, ruptured",P. aeruginosa DSM 1117; 16 µg/mL,0%
same,"Ribosome clustering: +++, extremely clustered",P. aeruginosa DSM 1117; 16 µg/mL,0%
same,"Ribosome clustering: ++, clustered",P. aeruginosa DSM 1117; 16 µg/mL,0%
same,"Ribosome clustering: +, starting",P. aeruginosa DSM 1117; 16 µg/mL,30%
same,"Ribosome clustering: -, no",P. aeruginosa DSM 1117; 16 µg/mL,70%
same,"dissociated Fragments: ++, long and thin",P. aeruginosa DSM 1117; 16 µg/mL,0%
same,"dissociated Fragments: +, small and thin",P. aeruginosa DSM 1117; 16 µg/mL,0%
same,"dissociated Fragments: -, no",P. aeruginosa DSM 1117; 16 µg/mL,100%
same,"dissociated Fragments: LV, large vesicles",P. aeruginosa DSM 1117; 16 µg/mL,0%
same,Cells spongy,P. aeruginosa DSM 1117; 64 µg/mL,0%
same,"DNA/ribosomes relocalization: ++, relocalized",P. aeruginosa DSM 1117; 64 µg/mL,67%
same,"DNA/ribosomes relocalization: +, starting",P. aeruginosa DSM 1117; 64 µg/mL,10%
same,"DNA/ribosomes relocalization: -, no",P. aeruginosa DSM 1117; 64 µg/mL,10%
same,"Membrane: b, broken",P. aeruginosa DSM 1117; 64 µg/mL,10%
same,"Membrane: i, intact",P. aeruginosa DSM 1117; 64 µg/mL,90%
same,"Membrane: r, ruptured",P. aeruginosa DSM 1117; 64 µg/mL,3%
same,"Ribosome clustering: +++, extremely clustered",P. aeruginosa DSM 1117; 64 µg/mL,7%
same,"Ribosome clustering: ++, clustered",P. aeruginosa DSM 1117; 64 µg/mL,7%
same,"Ribosome clustering: +, starting",P. aeruginosa DSM 1117; 64 µg/mL,77%
same,"Ribosome clustering: -, no",P. aeruginosa DSM 1117; 64 µg/mL,10%
same,Vesicle release,P. aeruginosa DSM 1117; 64 µg/mL,50%
same,"dissociated Fragments: ++, long and thin",P. aeruginosa DSM 1117; 64 µg/mL,3%
same,"dissociated Fragments: +, small and thin",P. aeruginosa DSM 1117; 64 µg/mL,0%
same,"dissociated Fragments: -, no",P. aeruginosa DSM 1117; 64 µg/mL,97%
same,"dissociated Fragments: LV, large vesicles",P. aeruginosa DSM 1117; 64 µg/mL,0%
same,Cells spongy,P. aeruginosa DSM 1117; 512 µg/mL,10%
same,"DNA/ribosomes relocalization: +++, extremely relocalized",P. aeruginosa DSM 1117; 512 µg/mL,100%
same,"DNA/ribosomes relocalization: ++, relocalized",P. aeruginosa DSM 1117; 512 µg/mL,0%
same,"DNA/ribosomes relocalization: +, starting",P. aeruginosa DSM 1117; 512 µg/mL,0%
same,"DNA/ribosomes relocalization: -, no",P. aeruginosa DSM 1117; 512 µg/mL,0%
same,"Membrane: b, broken",P. aeruginosa DSM 1117; 512 µg/mL,80%
same,"Membrane: i, intact",P. aeruginosa DSM 1117; 512 µg/mL,20%
same,"Membrane: r, ruptured",P. aeruginosa DSM 1117; 512 µg/mL,63%
same,"Ribosome clustering: +++, extremely clustered",P. aeruginosa DSM 1117; 512 µg/mL,93%
same,"Ribosome clustering: ++, clustered",P. aeruginosa DSM 1117; 512 µg/mL,7%
same,"Ribosome clustering: +, starting",P. aeruginosa DSM 1117; 512 µg/mL,0%
same,"Ribosome clustering: -, no",P. aeruginosa DSM 1117; 512 µg/mL,0%
same,Vesicle release,P. aeruginosa DSM 1117; 512 µg/mL,7%
same,"dissociated Fragments: +, small and thin",P. aeruginosa DSM 1117; 512 µg/mL,0%
same,"dissociated Fragments: -, no",P. aeruginosa DSM 1117; 512 µg/mL,87%
same,"dissociated Fragments: LV, large vesicles",P. aeruginosa DSM 1117; 512 µg/mL,0%
same,"membranes ruptured, % of the cells",P. aeruginosa DSM 1117; 512 µg/mL,80%
same,"membranes ruptured, % of the cells",P. aeruginosa DSM 1117; 4 × MIC,10%
same,"Cell: r, ruptured",E. coli DSM 1103; 8 µg/mL,0%
same,DNA/Ribosomes relocalized,E. coli DSM 1103; 8 µg/mL,0%
same,"Fragments: +++, long and thick",E. coli DSM 1103; 8 µg/mL,0%
same,"Fragments: ++, long and thin",E. coli DSM 1103; 8 µg/mL,23%
same,"Fragments: +, small and thin",E. coli DSM 1103; 8 µg/mL,63%
same,"Fragments: -, no",E. coli DSM 1103; 8 µg/mL,13%
same,"Fragments: LV, large vesicles",E. coli DSM 1103; 8 µg/mL,0%
same,"Membrane: i, intact",E. coli DSM 1103; 8 µg/mL,3%
same,"Membrane: w, wrinkled",E. coli DSM 1103; 8 µg/mL,97%
same,Vesicle release weak,E. coli DSM 1103; 8 µg/mL,30%
same,"Cell: r, ruptured",E. coli DSM 1103; 32 µg/mL,0%
same,DNA/Ribosomes relocalized,E. coli DSM 1103; 32 µg/mL,0%
same,"Fragments: +++, long and thick",E. coli DSM 1103; 32 µg/mL,0%
same,"Fragments: ++, long and thin",E. coli DSM 1103; 32 µg/mL,10%
same,"Fragments: +, small and thin",E. coli DSM 1103; 32 µg/mL,57%
same,"Fragments: -, no",E. coli DSM 1103; 32 µg/mL,33%
same,"Fragments: LV, large vesicles",E. coli DSM 1103; 32 µg/mL,0%
same,"Membrane: i, intact",E. coli DSM 1103; 32 µg/mL,7%
same,"Membrane: w, wrinkled",E. coli DSM 1103; 32 µg/mL,93%
same,Vesicle release weak,E. coli DSM 1103; 32 µg/mL,43%
same,"Cell: r, ruptured",E. coli DSM 1103; 128 µg/mL,0%
same,DNA/Ribosomes relocalized,E. coli DSM 1103; 128 µg/mL,0%
same,"Fragments: +++, long and thick",E. coli DSM 1103; 128 µg/mL,0%
same,"Fragments: ++, long and thin",E. coli DSM 1103; 128 µg/mL,30%
same,"Fragments: +, small and thin",E. coli DSM 1103; 128 µg/mL,53%
same,"Fragments: -, no",E. coli DSM 1103; 128 µg/mL,17%
same,"Fragments: LV, large vesicles",E. coli DSM 1103; 128 µg/mL,0%
same,"Membrane: i, intact",E. coli DSM 1103; 128 µg/mL,17%
same,"Membrane: w, wrinkled",E. coli DSM 1103; 128 µg/mL,83%
same,Vesicle release weak,E. coli DSM 1103; 128 µg/mL,47%
same,"Cell: r, ruptured",E. coli DSM 1103; 512 µg/mL,0%
same,DNA/Ribosomes relocalized,E. coli DSM 1103; 512 µg/mL,30%
same,"Fragments: +++, long and thick",E. coli DSM 1103; 512 µg/mL,0%
same,"Fragments: ++, long and thin",E. coli DSM 1103; 512 µg/mL,37%
same,"Fragments: +, small and thin",E. coli DSM 1103; 512 µg/mL,63%
same,"Fragments: -, no",E. coli DSM 1103; 512 µg/mL,0%
same,"Fragments: LV, large vesicles",E. coli DSM 1103; 512 µg/mL,0%
same,"Membrane: i, intact",E. coli DSM 1103; 512 µg/mL,33%
same,"Membrane: w, wrinkled",E. coli DSM 1103; 512 µg/mL,67%
same,Vesicle release weak,E. coli DSM 1103; 512 µg/mL,60%
same,MIC E. coli ATCC 25922,[1],8 µg/mL
same,"MIC E. coli DSM 1103, high inoculum",[1],32 µg/mL
same,MIC K. pneumoniae DSM 681,[2],8 µg/mL
same,"MIC P. aeruginosa DSM 1117, high inoculum",[3],16 µg/mL
